According to patent publication US4687773A, “(+)-N-N-propylnorapomorphine and selective limbic activity” (priority 1985, dated 1987):
Where a name gives a salt, the structure may show the parent alone. Read-outs that look alike come from different tables or passages of the source.

Assays:
Dopamine Receptors [1] = type: binding, calf; settings: ligand [3H]ADTN (0.5 nM)
Dopamine Receptors [2] = type: binding, calf; settings: ligand [3H]APO (0.5 nM)
[3] = molecular target: T1, rat liver catechol O-methyl-transferase (COMT) (Rattus norvegicus, UniProt P22734); test: Isomeric substrate selectivity for rat liver COMT; type: biochemical
T1 construct: partially purified rat liver catechol O-methyl-transferase (COMT); from tissue; host or cells: rat liver, ammonium sulfate precipitation and dialysis
T1 sequence (P22734 1-221 isoform P22734-2): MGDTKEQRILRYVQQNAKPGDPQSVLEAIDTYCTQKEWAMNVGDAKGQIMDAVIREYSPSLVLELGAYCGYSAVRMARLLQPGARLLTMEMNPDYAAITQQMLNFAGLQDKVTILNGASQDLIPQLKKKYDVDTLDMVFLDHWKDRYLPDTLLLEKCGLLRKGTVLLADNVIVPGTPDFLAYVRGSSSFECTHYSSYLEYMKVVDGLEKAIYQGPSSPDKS

[4] = system: DA in the limbic system (nucleus accumbens septi); test: Arousal (locomotor activity) induced by DA injected into nucleus accumbens septi; type: in vivo, rat; settings: for activity counts (arousal induced by 16 μg DA in accumbens): 30 min, DA control 238 ± 38
Procedure: An experiment shown in Table 9 involves testing the effects of S(+) isomers of apomorphine (APO) and N-propylnorapomorphine (NPA) given systemically (intraperitoneally, ip), as well as S(+) methylenedioxy-N-propylnorapomorphine (MDO-NPA) given ip or orally (po, by orogastric intubation). […]. […] Activity was monitored for 30 min after injection of DA into the brain, which was done at 10 min after systemic dosing with an S(+)aporphine test compound.
Data are mean activity counts ± SEM (N = 6) for rats given DA into the
medial accumbens after pretreatment with an inhibitor of monoamine oxidas
(MA0), and monitored on EAM for 30 min (aporphine given 10 min before DA
systemicallyintraperitoneally [ip] or orally [po].

[5] = system: dopamine (DA) receptors in the limbic system; test: Locomotor activity (spontaneous or aroused by (-)APO / (-)NPA), electronic activity monitor; type: in vivo, rat; settings: for Locomotion: Table 5; for effect on locomotor-arousal activity (in words): with or without (-) isomer, Hydrochloride
Procedure: (§1) Activity: Overall motor activity was measured by use of the self-recording Stoelting electronic activity monitor method described previously by Stewart, Campbell, Sperk, and Baldessarini^9. Total activity is obtained by setting monitor sensitivity so as to detect both locomotion and small movements (such as grooming, sniffing, and chewing) as would be prominent in stereotyped responses that tend to diminish locomotion and increase sniffing, licking, and chewing movements. Locomotor activity is detected selectively by setting monitor sensitivity to detect large, locomotor movements, and to minimize smaller movements already described.
Rats (mean N=6 per condition) were tested for locomotor activity for 60 min following a single dose of (-)APO (0.3 mg/kg, SC), or its vehicle ("placebo" condition). The S(+) isomers were administered in a range of doses from 0 or 0.1 to 30 mg/kg, SC immediately following injection of (-)APO or its vehicle. Data are presented in FIG. 2 as mean EAM activity counts per hour SEM. In that figure, the dashed line labeled "control" represents the mean activity of rats given vehicle only and no aporphine (SD values are indicated by parallel light lines above and below the control mean).
Test agents (11substituted-N--propylnoraporphine isomers were given at a
dose of 3 mg/kg, ip (in 2 ml/kg) just prior to (-)apomorphine (APO, at 0.
mg/kg, ip, in 1 ml/kg) to rats (N = 6) tested in an electronic activity

[6] = Catalepsy (latency to resume normal posture); type: in vivo, rat; settings: s.c., maximum 18.0
Procedure: Catalepsy: This measure of muscle rigidity is assessed by having animals in abnormal body positions and timing their duration of maintaining these. This is done by placing rats on a wire grid placed at a 45° angle to the benchtop, or by placing their forelimbs on a raised horizontal metal bar, and timing the latency to resume a normal posture by stopwatch.
(§2) All data presented in the Tables below are expressed as the mean results from 4-6 rats per condition, ±S.E.M. Stereotypy is expressed in rating units (maximum=3.0) and activity is expressed in arbitrary units of percent change, derived from EAM counts per unit time, relative to activity in control (saline) animals set at zero.

[7] = molecular target: T2, Dopamine (DA) sensitive adenylate cyclase (Rattus norvegicus, UniProt P18901); test: Stimulation of formation of cyclic AMP in rat striatal homogenate; type: biochemical
T2 construct: homogenates of rat corpus striatum; from tissue; host or cells: rat corpus striatum homogenate
T2 sequence (P18901 whole entry): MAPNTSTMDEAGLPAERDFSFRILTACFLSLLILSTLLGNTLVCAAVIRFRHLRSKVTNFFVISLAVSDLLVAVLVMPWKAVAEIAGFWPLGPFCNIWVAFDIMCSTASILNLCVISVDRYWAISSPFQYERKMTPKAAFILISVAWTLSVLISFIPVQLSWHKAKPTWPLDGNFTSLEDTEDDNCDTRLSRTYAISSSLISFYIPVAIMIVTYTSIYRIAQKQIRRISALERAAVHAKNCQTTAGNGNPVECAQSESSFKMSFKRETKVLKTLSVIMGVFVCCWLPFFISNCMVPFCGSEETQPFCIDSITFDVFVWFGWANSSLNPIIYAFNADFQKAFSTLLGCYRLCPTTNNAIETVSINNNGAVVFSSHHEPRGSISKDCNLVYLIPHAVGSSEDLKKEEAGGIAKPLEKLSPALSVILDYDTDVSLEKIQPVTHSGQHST
From the text: assayed in homogenates of corpus striatum obtained from rat brain. The
method of assay of the activity of DAsensitive adenylate cyclase by the
rate of formation of cAMP above a basal (no agonist) level is described
under Experimental Section. The data are mean values of cAMP levels in […]

[8] = system: dopamine (DA) receptors in the basal ganglia (corpus striatum); test: Stereotyped licking and gnawing behavior rating in the rat; type: in vivo
From the text: Stereotypy: The mean stereotyped licking and gnawing behavioral rating scheme developed by Tarsy and Baldessarini^8 was used. […]
Stereotypy scores were rated for one hour as described in […]

[9] = system: dopamine (DA) receptors in the limbic system and basal ganglia; test: Total motor activity, electronic activity monitor (EAM); type: in vivo, rat
Procedure: as §1, §2
All the posttreatment doses of (+)APO were 3.0 mg/kg, s.c. The data
All posttreatment doses of (+)NPA were 3 mg/kg, s.c. The data are similar

[10] = 2.5 min, read-out: cAMP production, % of control
[11] = Table 5, (+)NPA 3 mg/kg s.c. after (-)NPA 0.3 mg/kg
[12] = Table 5, (+)NPA 3 mg/kg s.c. after (-)NPA 3.0 mg/kg
[13] = Table 5, (+)NPA 3 mg/kg s.c., (-)NPA 0

CCCN1CCc2cccc3c2[C@@H]1Cc1ccc(O)c(O)c1-3 [(+)NPA, (S)-N-n-Propylnorapomorphine Hydrochloride]
IC50 (Dopamine Receptors [1]): 60 nM | IC50 (Dopamine Receptors [2]): 66 nM | Vmax (range of two experiments) ([3]; footnote range): 10.2- 13.2 (pmol/assay)/h | Vmax ([3]; mean, substrate of rat liver COMT): 11.7 (pmol/assay)/h | activity counts (arousal induced by 16 μg DA in accumbens) ([4]; 0.3 mg/kg ip): 139 ± 17 activity counts | activity counts (arousal induced by 16 μg DA in accumbens) ([4]; 1.0 mg/kg ip): 80 ± 11 activity counts | activity counts (arousal induced by 16 μg DA in accumbens) ([4]; 3.0 mg/kg ip): 54 ± 10 activity counts | ED50 ([4]; Rattus norvegicus, ip, read-out: ID50, ip, DA 16 μg in accumbens): 0.4 mg/kg | ID50 ([4]; ip, DA 16 μg in accumbens, hydrochloride): 0.45 mg/kg | times more potent than (+)APO as inhibitor of DA in the limbic system ([4]; vs (+)APO): 8 times | Locomotion ([5]; (+)NPA 3 mg/kg s.c. after (-)NPA 0.3 mg/kg): 14.8 ± 2.6 percent change | Locomotion ([5]; (+)NPA 3 mg/kg s.c. after (-)NPA 3.0 mg/kg): 8.5 ± 0.6 percent change | Locomotion ([5]; (+)NPA 3 mg/kg s.c., (-)NPA 0): 0 percent change | ID50 to reduce the locomotor activating actions of (-)APO ([5]; s.c., (-)APO 0.3 mg/kg): 0.2 mg/kg | ID50, spontaneous locomotor arousal ([5]; spontaneous activity): 3 mg/kg | effect on locomotor-arousal activity (in words) [5]: dose-dependent inhibition of such activity of the R(-) aporphine | effect on locomotor-arousal activity (in words) ([5]; listed as (+)-N-n-propylnorapomorphine): marked motor-inhibitory effect | Catalepsy score ([6]; 0.1 mg/kg): 0.6 ± 0.1 | Catalepsy score ([6]; 0.3 mg/kg): 0.4 ± 0.1 | Catalepsy score ([6]; 3.0 mg/kg): 0.6 ± 0.1 | Catalepsy score ([6]; 5.0 mg/kg): 0.6 ± 0.1 | cAMP production ([7]; 10 μM): 2.95 ± 0.19 picomoles per 2.5 min | cAMP production ([7]; 100 μM): 3.19 ± 0.16 picomoles per 2.5 min | cAMP formation, % of control at 10 µM [7, 10]: 119% | cAMP formation, % of control at 100 µM [7, 10]: 129% | Stereotyped behavior induced by (-)APO, Percent of Control ([8]; (+)NPA 3 mg/kg IP after (-)APO 0.3 mg/kg IP): 100.0 ± 10.6% of Control | Stereotyped behavior induced by (-)APO, Percent of Control ([8]; (+)NPA 5 mg/kg IP after (-)APO 0.3 mg/kg IP): 100.0 ± 12.3% of Control | Stereotyped behavior induced by (-)APO, Percent of Control ([8]; (+)NPA 30 mg/kg IP after (-)APO 0.3 mg/kg IP): 102.6 ± 8.9% of Control | Stereotypy Score ([8]; Table 1, (+)NPA 5 mg/kg s.c. ± (-)APO 3 mg/kg s.c. (printed first: (+)NPA), maximum 3.0): 2.9 ± 0.1 rating units | Stereotypy Score ([8]; Table 1, (+)NPA 5 mg/kg s.c. ± (-)NPA 3 mg/kg s.c. (printed first: (+)NPA), maximum 3.0): 2.9 ± 0.2 rating units | Stereotypy Score ([8]; Table 1, (+)NPA 5 mg/kg, s.c., ± saline, maximum 3.0): 0.0 ± 0.0 rating units | Stereotypy Score ([8]; Table 1, (-)APO 3 mg/kg s.c. ± (+)NPA 5 mg/kg s.c. (printed first: (-)APO), maximum 3.0): 2.9 ± 0.1 rating units | Stereotypy Score ([8]; Table 1, (-)NPA 3 mg/kg s.c. ± (+)NPA 5 mg/kg s.c. (printed first: (-)NPA), maximum 3.0): 3.0 ± 0.0 rating units | Stereotypy Score ([8]; Table 3, 0.1 mg/kg, s.c., maximum 3.0): 0 rating units | Stereotypy Score ([8]; Table 3, 0.3 mg/kg, s.c., maximum 3.0): 0 rating units | Stereotypy Score ([8]; Table 3, 3.0 mg/kg, s.c., maximum 3.0): 0 rating units | Stereotypy Score ([8]; Table 3, 5.0 mg/kg, s.c., maximum 3.0): 0 rating units | Stereotypy Score [8, 11]: 1.7 ± 0.6 rating units | Stereotypy Score [8, 12]: 2.9 ± 0.8 rating units | Stereotypy Score [8, 13]: 0 rating units | stereotyped behavior (in words) ([8]; rat, in vivo): little effect on stereotyped gnawing | Total Activity ([9]; Table 3, 0.1 mg/kg, s.c.): 3.2 ± 1.1 percent change vs. placebo con | Total Activity ([9]; Table 3, 0.3 mg/kg, s.c.): -5.2 ± 3.1 percent change vs. placebo con | Total Activity ([9]; Table 3, 3.0 mg/kg, s.c.): -50.0 ± 18 percent change vs. placebo con | Total Activity ([9]; Table 3, 5.0 mg/kg, s.c.): -52.1 ± 21 percent change vs. placebo con | Total Activity [9, 11]: 18.8 ± 2.6 percent change | Total Activity [9, 12]: 156.7 ± 26 percent change | Total Activity [9, 13]: 0 percent change
